Patent publication US7604993B2, “Combined regulation of neural cell production” (Stem Cell Therapeutics Inc., priority 2001, dated 2009)
Entries after “also recorded” stand apart in the source; their conditions may differ. No end group written: not given here.

How the values were obtained:
[1] = test system: neurospheres; assay: Multipotency of neurospheres (neuron, oligodendrocyte, astrocyte derived from each neurosphere); format: cell-based; conditions: neurospheres produced in the factor(s)
Experimental: The protocols for neural stem cell culture are described in detail in U.S. Pat. No. 5,750,376 or Shingo et al., 2001. Briefly, embryonic neural stem cells were prepared from E14 medial and lateral ganglionic eminences. Adult neural stem cells were prepared from the subventricular zone of adult mice. The tissue was cultured in basal medium containing 20 ng/ml EGF, or other growth factors as indicated in each case, to form neurospheres. The composition of the basal medium is as follows: DMEM/F12 (1:1); glucose (0.6%); glutamine (2 mM); sodium bicarbonate (3 mM); HEPES (5 mM); insulin (25 μg/ml); transferrin (100 μg/ml); progesterone ([…]); putrescine (60 μM); and selenium chloride (30 nM).
Accordingly, we compared the expandability and multipotency of neurospheres that were produced in EGF alone or EGF plus CNTF. For expandability, pass 1 neurospheres were dissociated and replated at clonal density to generate pass 2 neurospheres, and the number of pass 2 neurospheres that were derived from a single pass 1 sphere was counted. […] Therefore, neural stem cells differentiate to glial cells by default, which can be inhibited by CNTF.

[2] = Forelimb asymmetry test in focal ischemic injury (stroke) model; format: in vivo; conditions: rats with focal ischemic injury; first infusion days 1-7, second infusion days 8-14
From the text: (§1) Adult male Long-Evans rats (250-350 g) were obtained from Charles River Breeding Farms and were adapted to the colony for two weeks prior to any treatment. A week before surgery the rats were given a baseline testing on the behavioral tests.
(§2) The animals for the stroke study received unilateral devascularization of the sensorimotor cortex. Using Isoflurane anesthesia, the skin was incised and retracted and the overlying fascia were removed from the skull. A skull opening was made at the following coordinates, taking care not to damage the dura: AP +4.0 to −2.0; L 1.5 to 4 (the parasagittal ridge; Kolb et al., 1997). The dura was cut and retracted from the skull opening. A cotton swab soaked in sterile saline was gently rubbed across the exposed pia and the vessels were removed. […]
(§3) Six days later the animals were assessed using the behavioral test. […]
Forepaw asymmetry of the animals was determined by filming them from below while in an acrylic cylinder 25 cm in diameter, on an acrylic platform. Preference was determined by separately counting the number of times in 5 minutes that an animal reared and placed the left or right forepaw on the surface of the cylinder in a gesture of postural stabilization. […]
(§4) The animals then received various test factors, and the effects of these factors on the forelimb inhibition test and brain anatomy were assessed. […]

[3] = test system: migrating neuronal progenitor cells; assay: Brain anatomical analysis (Cresyl Violet, Doublecortin) in focal ischemic injury (stroke) model; format: in vivo; conditions: rats with focal ischemic injury, end of week 6
From the text: The animals for the stroke study received unilateral devascularization of the sensorimotor cortex. Using Isoflurane anesthesia, the skin was incised and retracted and the overlying fascia were removed from the skull. A skull opening was made at the following coordinates, taking care not to damage the dura: AP +4.0 to −2.0; L 1.5 to 4 (the parasagittal ridge; Kolb et al., 1997). The dura was cut and retracted from the skull opening. A cotton swab soaked in sterile saline was gently rubbed across the exposed pia and the vessels were removed. A hole was then drilled in the contralateral hemisphere to provide an opening for the cannulae attached to the osmotic minipump at AP −0.5; L 1.5. An osmotic minipump was placed under the skin between the shoulder blades and a tube connected under the skin to the cannulae, which was attached to the skull with fast-drying cement. Once hemostasis had been achieved the scalp was sutured closed with 5-O sterile suture. The animals were given a single injection of Banamine (an analgesic) and returned to their home cage. Sham animals received only anesthesia, the bone opening, and the skin was incised and sutured. […] The animals then received various test factors, and the effects of these factors on the forelimb inhibition test and brain anatomy were assessed. […]

[4] = Forelimb inhibition test in focal ischemic injury (stroke) model; format: in vivo; conditions: rats with focal ischemic injury; first infusion days 1-7, second infusion days 8-14
From the text: as §1
as §2, with “removed. A hole was then drilled in the contralateral hemisphere to provide an opening for the cannulae attached to the osmotic minipump at AP −0.5; L 1.5.” for “removed.”
as §3
In normal rats, swimming is accomplished by propulsion from the hind limbs. […] Inhibition of the forelimbs was assessed by filming animals while swimming. […]
as §4

[5] = test system: neural stem cells in the subventricular zone; assay: Subcutaneous administration, number of neural stem cells in the subventricular zone; format: in vivo

EGF: epidermal growth factor; human recombinant EGF for infusion (NSDSECPLSHDGYCLHDGVCMYIEALDKYACNCVVGYIGERCQYRDLKWWELR; UniProt P01133 971-1023, looked up)
glial cells generated by neurospheres, relative to those produced in EGF plus CNTF [1]: 4 times

growth hormone: growth hormone, first infusion days 1-7, then CSF (Group 5)
recovery of forelimb asymmetry / motor function in the forelimb asymmetry test [2]: improvement of motor functions; also recorded: recovered from asymmetrical forelimb usage; also recorded: improved a motor neuron-related function; also recorded: reversed effect
doublecortin staining / doublecortin positive cells in the brain [3]: increased doublecortin positive cells
forepaw inhibition / motor function in the forelimb inhibition test [4]: reversed effect
delivery by subcutaneous administration to modulate the number of neural stem cells in the subventricular zone [5]: effectively delivered

IGF-1: IGF-1, a factor said to proliferate neural stem cells
delivery by subcutaneous administration to modulate the number of neural stem cells in the subventricular zone [5]: effectively delivered

PACAP: pituitary adenylate cyclase activating polypeptide (HSDGIFTDSYSRYRKQMAVKKYLAAVLGKRYKQRVKNK; ends and bridges not checked; UniProt P18509 132-169, looked up)
delivery by subcutaneous administration to modulate the number of neural stem cells in the subventricular zone [5]: effectively delivered
